In US20090162413A1 (priority 1998, published 2009):

Experiment: Phase 1 multiple escalating intravenous dose safety and pharmacokinetics, QD for 14 days (Example 7)
Assay type: in vivo, human
Conditions: for median Cmax: predicted 14-day profile; for AUCτ/Dose / Cmax / Cmax/Dose: secondary predicted parameter; for Gamma: terminal elimination rate constant
Protocol: The present study was designed to evaluate the pharmacokinetics of zotarolimus following multiple dosing and to assess its safety while maximizing systemic exposure of healthy subjects. […] The study investigated pharmacokinetics and safety of zotarolimus in a Phase 1, multiple dose-escalation study following multiple intravenous infusions of 200, 400 and 800 μg doses, every day for fourteen consecutive days in healthy subjects.
Phase 1, multiple-escalating dose, double-blind, placebo-controlled, randomized study. Seventy-two subjects equally divided in 3 once-daily (QD) regimens (200, 400 or 800 μg QD with 16 active and 8 placebo per regimen) were administered a 60-minute QD IV infusion of zotarolimus for 14 consecutive days. Blood samples were collected over 24 hours following the first dose, before dosing on days 10, 11, 12, 13, and for 168 hours following Day 14 dose. Urine samples were collected over 24 hours on days 1, 14, 16, 18 and 20. Blood and urine zotarolimus concentrations were determined using a validated LC/MS/MS method. Pharmacokinetic parameters were determined by compartmental analysis. All Day-AUC0-∞ (area under blood concentration-time curve from time 0 to infinity including all 14 doses) was calculated. Dose and time-linearity and achievement of steady-state were evaluated. Fraction of drug eliminated in urine was determined.
Within each group, subjects were equally divided at the two study sites with each site enrolling 12 subjects (zotarolimus, eight subjects; placebo four subjects). The dosing scheme within each dose group is presented below:
Subjects received, under fasting conditions, a single 60-minute daily (QD) intravenous infusion of 200, 400, or 800 μg of zotarolimus or a matching intravenous infusion of placebo for Groups I, II and III, respectively on Study Days 1 through 14. The drug was administered via a syringe pump connected to a y-site device, which also infused 125-150 mL of 5% aqueous dextrose solution (D5W) over 60 minutes. The groups were dosed sequentially with at least 7 days separating the last dose of the previous group and the first dose of the next group during which time safety data from the previous group was analyzed. Dose escalation was dependent on the safety analysis of the lower dose group.
Five (5)-mL blood samples were collected in potassium EDTA containing tubes to evaluate zotarolimus concentrations prior to dosing (0 hour), and at 0.25, 0.5, 1.0, 1 hour 5 min, 1.25, 1.5, 2, 3, 4, 8, 12, 18 and 24 hours after starting infusion on Study Days 1 and 14. Additional samples were collected at 36, 48, 72, 96, 120, 144 and 168 hours after starting infusion on Study Day 14 and before dosing on Days 10, 11, 12 and 13. Urine was collected in containers without preservatives over the following intervals: 0 to 6, 6 to 12, 12 to 18 and 18 to 24 hours after starting the infusion on Study Days 1, 14, 16, 18 and 20.
Blood and urine concentrations of zotarolimus were determined using a validated liquid/liquid extraction HPLC tandem mass spectrometric method (LC-MS/MS). The lower limit of quantification of zotarolimus was 0.20 ng/mL using 0.3 mL blood sample and 0.50 ng/mL using 0.3 mL urine sample.
Safety was evaluated based on adverse event, physical examination, vital signs, ECG, injection site and laboratory tests assessments
The pharmacokinetic parameter values of zotarolimus were estimated for individual subjects using compartmental analysis. Data from the first dose on Study Day 1, the last dose on Study Day 14 and the trough concentrations on Study Days 10, 11, 12 and 13 were simultaneously modeled for each individual subject. […]

CO[C@H]1C[C@@H]2CC[C@@H](C)[C@@](O)(O2)C(=O)C(=O)N2CCCC[C@H]2C(=O)O[C@H]([C@H](C)C[C@@H]2CC[C@H](n3cnnn3)[C@H](OC)C2)CC(=O)[C@H](C)/C=C(\C)[C@@H](O)[C@@H](OC)C(=O)[C@H](C)C[C@H](C)/C=C/C=C/C=C/1C [zotarolimus]
V1 (200 μg QD IV infusion 14 days, compartmental, mean ± SD): 11.4 ± 1.7 L
median Cmax (200 μg QD): 11.4 ng/mL
AUCτ/Dose (200 μg QD, mean ± SD): 0.245 ± 0.031 ng·h/mL/µg
Cmax (200 μg QD, mean ± SD): 11.2 ± 1.1 ng/mL
Cmax/Dose (200 μg QD, mean ± SD): 0.056 ± 0.006 ng/mL/µg
Gamma (200 μg QD, mean ± SD): 0.028 ± 0.005 h − 1
V1 (400 μg QD IV infusion 14 days, compartmental, mean ± SD): 11.3 ± 1.0 L
median Cmax (400 μg QD): 22.1 ng/mL
AUCτ/Dose (400 μg QD, mean ± SD): 0.260 ± 0.047 ng·h/mL/µg
Cmax (400 μg QD, mean ± SD): 21.4 ± 2.4 ng/mL
Cmax/Dose (400 μg QD, mean ± SD): 0.053 ± 0.006 ng/mL/µg
Gamma (400 μg QD, mean ± SD): 0.022 ± 0.003 h − 1
V1 (800 μg QD IV infusion 14 days, compartmental, mean ± SD): 13.1 ± 3.2 L
fraction of the dose recovered in the urine as unchanged drug (800 μg QD dose group, 24-hour period on Day 1 and Day 14): approximately 0.1%
median Cmax (800 μg QD): 38.9 ng/mL
AUCτ/Dose (800 μg QD, mean ± SD): 0.224 ± 0.022 ng·h/mL/µg
Cmax (800 μg QD, mean ± SD): 38.7 ± 6.3 ng/mL
Cmax/Dose (800 μg QD, mean ± SD): 0.048 ± 0.008 ng/mL/µg
Gamma (800 μg QD, mean ± SD): 0.023 ± 0.003 h − 1
evidence of immunosuppression, QTc prolongation or clinically significant adverse events (200-800 μg QD for 14 days): no subject displayed any clinical or biochemical evidence of immunosuppression, QTc prolongation or clinically significant adverse events
most common treatment-emergent adverse events (200-800 μg QD for 14 days): pain, headache, injection site reaction, dry skin, abdominal pain, diarrhea and rash
serious adverse events (200-800 μg QD for 14 days): no serious adverse events
dose proportionality and time dependence of pharmacokinetics (IV for 14 consecutive days, 200-800 μg QD): dose proportional and time invariant
Steady state for QD dosing reached (QD IV dosing, first trough samples on Day 10): ≤ 10 days
tolerability (multiple doses of 200, 400, and 800 μg for 14 consecutive days): generally well tolerated
V1 (range of means over the studied regimens 200-800 μg QD): 11.3 to 13.1 L
zotarolimus dose recovered in the urine (within a 24-hour period post-dose, on average): 0.1%
